Usually IC50 stands for the point on the concentration scale where inhibition reaches its midpoint.

Like-named read-outs stand apart in the source and are kept apart here.

Assay [1] concerns the target T1, KRAS (WT) (Homo sapiens, UniProt P01116).
T1 construct: Biotinylated KRAS protein amino acids 1-169 (produced at Erasca); made in house
In words: In-vitro RAS-RAF binding assay (RRB), HTRF/FRET. In kind it is biochemical. As to conditions: read-out: Inhibition of RAS-RAF Binding (in-vitro) KRAS (WT) IC50. The method, then: (§1) Biotinylated KRAS protein amino acids 1-169 (produced at […]) is labeled with streptavidin-terbium (lanthanide cryptate donor fluorophore) in assay buffer (50 mM HEPES, pH 7.5, 100 mM NaCl, 1 mM MgCl2, 1 mM DTT) at a final concentration of 30 nM. In a separate reaction mixture, 30 nM cRAF (RBD) (Abcam, Cambridge MA) is labeled with anti-GST d2 (acceptor fluorophore). Labeling reactions are incubated for 1 hour at room temperature. […] Following the compound incubation, SOS1 catalytic domain (produced at […]) and GTPgS are added to the reaction to initiate nucleotide exchange (60 minutes exchange reaction). Once in the GTP state KRAS will bind to cRAF. No binding will occur if KRAS remains in the GDP state. Compounds may block nucleotide exchange or may create a steric obstruction to cRAF-KRAS interaction by binding to the RAS effector site. […] A portion of this mixture is transferred to a white 384-well plate (20 uL per well in duplicate) and read on an HTRF compatible plate reader (ClarioSTAR). Fluorescent resonance energy transfer (FRET) is measured at equilibrium. FRET signal will be high if KRAS-cRAF binding occurs. FRET signal will be low if KRAS-cRAF binding is inhibited by the test compound. Table 2 represents the average of multiple runs of each compound.

Assay [2] concerns the target KRAS G12D (Homo sapiens, UniProt P01116, G12D). The assay can be described thus: In-vitro RAS-RAF binding assay (RRB), HTRF/FRET. As to conditions: read-out: Inhibition of RAS-RAF Binding (in-vitro) KRAS (G12D) IC50. Format: biochemical. Also noted: Biotinylated KRAS protein amino acids 1-169 (produced at Erasca); made in house. The method, then:
as §1
A general note: TR-FRET usually uses a lanthanide donor and a delayed reading to cut background.

Setting [3] is: Table 2, average of multiple runs of each compound.

T1 sequence (P01116 1-169 isoform P01116-2): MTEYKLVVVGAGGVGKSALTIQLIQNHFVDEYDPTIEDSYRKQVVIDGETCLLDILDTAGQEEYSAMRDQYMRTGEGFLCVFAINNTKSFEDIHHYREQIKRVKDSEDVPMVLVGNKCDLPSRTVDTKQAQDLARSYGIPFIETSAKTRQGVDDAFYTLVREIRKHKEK
Sequence of KRAS G12D (P01116 1-169 isoform P01116-2 G12D): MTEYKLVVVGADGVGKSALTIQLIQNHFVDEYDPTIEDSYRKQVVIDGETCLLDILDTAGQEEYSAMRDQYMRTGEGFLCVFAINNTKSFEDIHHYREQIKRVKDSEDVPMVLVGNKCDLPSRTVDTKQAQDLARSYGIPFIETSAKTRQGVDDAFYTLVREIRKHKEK

With `Cc1cc(N)nc(-c2c(Cl)cc3c(N4CC5CCC(C4)N5)nc(OC[C@@H]4CCCN4CCCOCCCOc4cc(-c5scnc5C)ccc4CNC(=O)[C@@H]4C[C@@H](O)CN4C(=O)[C@H](NC(=O)C4(F)CC4)C(C)(C)C)nc3c2F)c1C(F)(F)F` [Example 3, (2S,4R)—N-[[2-[3-[3-[(2S)-2-[[7-[6-amino-4-methyl-3-(trifluoromethyl)-2-pyridyl]-6-chloro-4-(3,8-diazabicyclo[3.2.1]octan-3-yl)-8-fluoro-quinazolin-2-yl]oxymethyl]pyrrolidin-1-yl]propoxy]propoxy]-4-(4-methylthiazol-5-yl)phenyl]methyl]-1-[(2R)-2-[(1-fluorocyclopropanecarbonyl)amino]-3,3-dimethyl-butanoyl]-4-hydroxy-pyrrolidine-2-carboxamide], the IC50 in assay [1] (Table 1) is more than 10000 nM; in assay [1] (setting [3]), more than 10000 nM; in assay [2] (Table 1), 64 nM; in assay [2] (setting [3]), 64.3 nM.
Turning to `C#Cc1c(F)ccc2cc(O)cc(-c3ncc4c(N5CC6CCC(C5)N6)nc(OC[C@@H]5CCCN5CCCOCCC(=O)N[C@H](C(=O)N5C[C@H](O)C[C@H]5C(=O)N[C@@H](C)c5ccc(-c6c(F)cccc6F)cn5)C(C)(C)C)nc4c3F)c12` [Example 30, (2S,4R)-1-((2S)-2-(3-(3-((2S)-2-(((4-(3,8-diazabicyclo[3.2.1]octan-3-yl)-7-(8-ethynyl-7-fluoro-3-hydroxynaphthalen-1-yl)-8-fluoropyrido[4,3-d]pyrimidin-2-yl)oxy)methyl)pyrrolidin-1-yl)propoxy)propanamido)-3,3-dimethylbutanoyl)-N—((S)-1-(5-(2,6-difluorophenyl)pyridin-2-yl)ethyl)-4-hydroxypyrrolidine-2-carboxamide], the IC50 in assay [1] (setting [3]) turned out to be 22.3 nM; in assay [2] (setting [3]) it was 7.59 nM.
The corresponding values for `C#Cc1c(F)ccc2cc(O)cc(-c3ncc4c(N5CC6CCC(C5)N6)nc(OC[C@@H]5CCCN5CCCOCCC(=O)N[C@H](C(=O)N5C[C@H](O)C[C@H]5C(=O)N[C@@H](C)c5ccc(-c6ccncc6C#N)cc5)C(C)(C)C)nc4c3F)c12` [Example 28, (2S,4R)-1-((2S)-2-(3-(3-((2S)-2-(((4-(3,8-diazabicyclo[3.2.1]octan-3-yl)-7-(8-ethynyl-7-fluoro-3-hydroxynaphthalen-1-yl)-8-fluoropyrido[4,3-d]pyrimidin-2-yl)oxy)methyl)pyrrolidin-1-yl)propoxy)propanamido)-3,3-dimethylbutanoyl)-N—((S)-1-(4-(3-cyanopyridin-4-yl)phenyl)ethyl)-4-hydroxypyrrolidine-2-carboxamide] are 24.2 nM and 7.93 nM.
As to `C#Cc1c(F)ccc2cc(O)cc(-c3ncc4c(N5CC6CCC(C5)N6)nc(OC[C@@H]5CCCN5CCCOCCC(=O)N[C@H](C(=O)N5C[C@H](O)C[C@H]5C(=O)N[C@@H](C)c5ccc(-c6c(Cl)ccc(Cl)c6Cl)cc5)C(C)(C)C)nc4c3F)c12` [Example 57, (2S,4R)-1-((2S)-2-(3-(3-((2S)-2-(((4-(3,8-diazabicyclo[3.2.1]octan-3-yl)-7-(8-ethynyl-7-fluoro-3-hydroxynaphthalen-1-yl)-8-fluoropyrido[4,3-d]pyrimidin-2-yl)oxy)methyl)pyrrolidin-1-yl)propoxy)propanamido)-3,3-dimethylbutanoyl)-4-hydroxy-N-((S)-1-(2′,3′,6′-trichloro-[1,1′-biphenyl]-4-yl)ethyl)pyrrolidine-2-carboxamide], the values for the IC50 in assay [1] (setting [3]) and in assay [2] (setting [3]) were 118 nM and 13.1 nM, respectively.
Turning to `C[C@H](NC(=O)[C@@H]1C[C@@H](O)CN1C(=O)[C@@H](NC(=O)CCOCCCN1CCC[C@H]1COc1nc(N2CC3CCC(C2)N3)c2cc(Cl)c(-c3ccc(F)c4sc(N)c(C#N)c34)c(F)c2n1)C(C)(C)C)c1ccc(-c2ccccc2Cl)cc1` [Example 25, (2S,4R)-1-((2S)-2-(3-(3-((2S)-2-(((7-(2-amino-3-cyano-7-fluorobenzo[b]thiophen-4-yl)-4-(3,8-diazabicyclo[3.2.1]octan-3-yl)-6-chloro-8-fluoroquinazolin-2-yl)oxy)methyl)pyrrolidin-1-yl)propoxy)propanamido)-3,3-dimethylbutanoyl)-N—((S)-1-(2′-chloro-[1,1′-biphenyl]-4-yl)ethyl)-4-hydroxypyrrolidine-2-carboxamide], the half-inhibitory concentration (IC50) amounted to 107 nM in assay [1] (setting [3]) and 12 nM in assay [2] (setting [3]).
The corresponding values for `C#Cc1c(F)ccc2cc(O)cc(-c3ncc4c(N5CC6CCC(C5)N6)nc(OCCN5CCC(F)(COc6cc([C@H](C(=O)N7C[C@H](O)C[C@H]7C(=O)N[C@@H](C)c7ccc(-c8c(F)cccc8F)cc7)C(C)C)on6)CC5)nc4c3F)c12` [Example 62, (2S,4R)-1-((2R)-2-(3-((1-(2-((4-(3,8-diazabicyclo[3.2.1]octan-3-yl)-7-(8-ethynyl-7-fluoro-3-hydroxynaphthalen-1-yl)-8-fluoropyrido[4,3-d]pyrimidin-2-yl)oxy)ethyl)-4-fluoropiperidin-4-yl)methoxy)isoxazol-5-yl)-3-methylbutanoyl)-N-((S)-1-(2′,6′-difluoro-[1,1′-biphenyl]-4-yl)ethyl)-4-hydroxypyrrolidine-2-carboxamide] are more than 10000 nM and 13.4 nM.
For `C#Cc1c(F)ccc2cc(O)cc(-c3ncc4c(N5CC6CCC(C5)N6)nc(OCCN5CCC(C)(COc6cc([C@H](C(=O)N7C[C@H](O)C[C@H]7C(=O)N[C@@H](C)c7ccc(-c8c(F)cc(F)cc8F)cc7)C(C)C)on6)CC5)nc4c3F)c12` [Example 64, (2S,4R)-1-((2R)-2-(3-((1-(2-((4-(3,8-diazabicyclo[3.2.1]octan-3-yl)-7-(8-ethynyl-7-fluoro-3-hydroxynaphthalen-1-yl)-8-fluoropyrido[4,3-d]pyrimidin-2-yl)oxy)ethyl)-4-methylpiperidin-4-yl)methoxy)isoxazol-5-yl)-3-methylbutanoyl)-4-hydroxy-N-((S)-1-(2′,4′,6′-trifluoro-[1,1′-biphenyl]-4-yl)ethyl)pyrrolidine-2-carboxamide] the same measures were 1410 nM and 9.62 nM.
Consider `C#Cc1c(F)ccc2cc(O)cc(-c3ncc4c(N5CC6CCC(C5)N6)nc(OC[C@@H]5CCCN5CCCOCCC(=O)N[C@H](C(=O)N5C[C@H](O)C[C@H]5C(=O)N[C@@H](C)c5ccc(-c6c(F)ccc(F)c6F)cc5)C(C)(C)C)nc4c3F)c12` [Example 44, (2S,4R)-1-((2S)-2-(3-(3-((2S)-2-(((4-(3,8-diazabicyclo[3.2.1]octan-3-yl)-7-(8-ethynyl-7-fluoro-3-hydroxynaphthalen-1-yl)-8-fluoropyrido[4,3-d]pyrimidin-2-yl)oxy)methyl)pyrrolidin-1-yl)propoxy)propanamido)-3,3-dimethylbutanoyl)-4-hydroxy-N-((S)-1-(2′,3′,6′-trifluoro-[1,1′-biphenyl]-4-yl)ethyl)pyrrolidine-2-carboxamide], for which the IC50 in assay [1] (setting [3]) was determined as 34.3 nM; in assay [2] (setting [3]) it was 8.92 nM.
Consider `Cc1ncsc1-c1ccc([C@H](CO)NC(=O)[C@@H]2C[C@@H](O)CN2C(=O)[C@@H](NC(=O)CCCCN2CCC[C@H]2COc2nc(N3CC4CCC(C3)N4)c3cc(Cl)c(-c4ccc(F)c5sc(N)c(C#N)c45)c(F)c3n2)C(C)(C)C)cc1` [Example 88, (2S,4R)-1-((2S)-2-(5-((2S)-2-(((7-(2-amino-3-cyano-7-fluorobenzo[b]thiophen-4-yl)-4-(3,8-diazabicyclo[3.2.1]octan-3-yl)-6-chloro-8-fluoroquinazolin-2-yl)oxy)methyl)pyrrolidin-1-yl)pentanamido)-3,3-dimethylbutanoyl)-4-hydroxy-N-((R)-2-hydroxy-1-(4-(4-methylthiazol-5-yl)phenyl)ethyl)pyrrolidine-2-carboxamide], for which the IC50 in assay [1] (setting [3]) was 63.3 nM; in assay [2] (setting [3]), 16.3 nM.

The values above are taken from patent US20240293558A1, “KRAS INHIBITOR CONJUGATES” (Erasca, Inc., priority 2021, published 2024).
